From patent EP1149092B1, “4- AND 5-ALKYNYLOXINDOLES AND 4- AND 5-ALKENYLOXINDOLES” (F. HOFFMANN-LA ROCHE AG, priority 1998, dated 2000) come the findings set out here.

Where only a bound is given, the exact number is not on record here.

Test [1] has as its system IL-6. Nature of the test: MG-63 Cell-Based Assay, IL-6 release after IL-1β stimulation (ELISA). As to conditions: Homo sapiens, MG63 cells, IL-1β stimulated, 24 hours with compound, read-out: IC50 (µM) in MG63 Cells IL6. The source says:
(§1) The MG63 cell line, a human osteosarcoma cell line, was purchased from American Type Culture Collection (ATCC; Rockville, MD) and grown in the medium recommended by ATCC. When stimulated with human IL-1β , MG63 cells release matrix metalloproteinase 3 (MMP-3), an AP-1 dependent inflammatory mediator and IL-6, a NF-κB-dependent mediator. In this assay the ability of a test compound to block MMP-3 expression and not block IL-6 expression is an indication that the compound is a selective inhibitor of the AP-1 transcription pathway.
(§2) On day 1 the cells were plated at 2.5X10^4 cells/well in 96 well plates. After 24 hours, dexamethasone (the assay control) (Sigma, St. Louis, MO) and the test compounds were diluted to appropriate concentrations and added to the MG63 cells. The cells were incubated with the compounds for 24 hours after which the supernatants were removed and analyzed by ELISA.
(§3) In the ELISA, 96 well plates were coated with antibody to MMP-3 or IL-6. Supernatants were added to the coated plates and any antigen (MMP-3 or IL-6) in the supernatant bound to the antibody coated on the plates. The plates were then washed with PBS containing 0.05% Tween 20 (Sigma, St. Louis, MO) and the biotinylated secondary antibody was added. This secondary antibody binds to the already bound antigen creating a "sandwich effect". Plates were washed as described above and horseradish peroxidase (HRP)-streptavidin conjugate (Sigma, St. Louis, MO) was added to the plates. HRP-streptavidin bound to the biotin-antibody conjugate. The plates were washed and TMB substrate (Kirkegaard and Perry Labs, Gaithersburg, MD) was added to the wells. This substrate changes color in the presence of HRP-streptavidin. The intensity of the color (measured at 450 nm) is proportional to the amount of MMP-3 or IL-6 produced by the MG63 cells upon exposure to IL-1β and the test compounds. Optical density values were converted to concentration (pg/ml or Units/ml) based on a standard curve included in the assay. IC50 values for each test compound were determined from the linear regression of a plot of the logarithm of the concentration of compound versus amount of MMP-3 or IL-6 secreted. (The MMP-3 antibodies were prepared in-house using standard hybridoma technology and the IL-6 antibodies were obtained from either Genzyme, Cambridge, MA or Pharmingen, San Diego, CA.).
(In general: In an ELISA, binding on a coated surface is turned into a signal by an enzyme label.)

The subject of another test is TNF. Description: U937 Cell-Based Assay, TNF release after LPS stimulation (ELISA). The settings on record: Homo sapiens, U-937; U937 cells, PMA then LPS stimulated, 24 hours. The protocol:
(§4) The U937 cells, a human monocyte/macrophage cell line, was obtained from the ATTC and grown in the recommended medium. These cells when stimulated with lipopolysaccharide (LPS) release TNF, another inflammatory mediator implicated in the JNK pathway (Swantek et al., supra) and IL-6. In this assay the ability of a test compound to block TNF expression is evaluated.
(§5) The assay is very similar to the MG63 cell based assay except for the following modifications. The U937 cells were suspension cells but when stimulated with phorbol myristate acetate (PMA) (Sigma, St. Louis, MO) they become adherent. After PMA stimulation the cells were washed in cell culture medium and plated at 1X10^5 cells/well in 96 well plates. The following day the test compounds and dexamethasone control (Sigma, St. Louis, MO) were added to the cells for 1 hour of preincubation. Then the cells were stimulated with LPS (Sigma, St. Louis, MO). After an additional 24 hours of incubation the supematants were removed and assayed for TNF-α and IL-6 by ELISA. The IL-6 ELISA was run as described previously for the MG63 assay. The TNF ELISA was run using a kit supplied by Genzyme (Cambridge, MA).

The next test relates to MMP-3. Description: MG-63 Cell-Based Assay, MMP-3 release after IL-1β stimulation (ELISA). The settings on record: Homo sapiens, MG63 cells, IL-1β stimulated, 24 hours with compound, read-out: IC50 (µM) in MG63 Cells MMP3.
Text: as §1, §2, §3

Another test deals with rat SAPK (isoform β) (Rattus norvegicus, UniProt P49187). Nature of the test: SAPK FlashPlate Assay (inhibition of cJun phosphorylation). It counts as biochemical. The settings on record: GST-cJun substrate, 30 minutes at 37 °C. As for the experimental part: "IC50" refers to the concentration of a particular 4- or 5-alkynyloxindole or 4-or 5-alkenyloxindole required to inhibit 50% of cJun phosphorylation, which is a measure of inhibition of SAPK activity. IC50 can be measured, inter alia, using the assay described herein in Example 102.
rat SAPK (isoform β), sequence (P49187 whole entry, canonical isoform): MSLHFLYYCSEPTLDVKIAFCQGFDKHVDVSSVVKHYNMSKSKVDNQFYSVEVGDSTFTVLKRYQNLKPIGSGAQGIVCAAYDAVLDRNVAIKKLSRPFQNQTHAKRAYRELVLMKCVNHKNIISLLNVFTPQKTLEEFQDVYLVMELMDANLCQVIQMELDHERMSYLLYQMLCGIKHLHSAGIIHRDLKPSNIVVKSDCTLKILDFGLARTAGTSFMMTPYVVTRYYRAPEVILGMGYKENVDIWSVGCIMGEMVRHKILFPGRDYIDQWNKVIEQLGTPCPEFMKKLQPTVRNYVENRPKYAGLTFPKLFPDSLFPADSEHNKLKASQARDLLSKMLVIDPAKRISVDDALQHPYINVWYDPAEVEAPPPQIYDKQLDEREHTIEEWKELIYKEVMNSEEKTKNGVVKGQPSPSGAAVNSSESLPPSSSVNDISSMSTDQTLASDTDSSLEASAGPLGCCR
Human JNK is highly homologous to rat SAPK. To measure the inhibitory activity of test compounds, the compounds were tested in the rat SAPK assay.
For the SAPK assay, purified GST-cJun (a chimeric protein containing cJun, a natural substrate of JNK) was coated on 96 well FlashPlates (New England Nuclear, Boston, MA). Purified rat SAPK (isoform β, Kyriakis et al. supra) was preincubated with preparations containing MEKK-1 and MKK4 for 30 minutes at 37 °C in assay buffer containing 25 mM HEPES, pH 7.5, 150 mM NaCl, 20 mM MgCl2, 2 mM DTT, 0.001% Tween 20, 1 µM ATP freshly added. In the preincubation step, MEKK-1 phosphorylates and activates MKK-4, which in tum phosphorylates and activates SAPK. The activated SAPK was then added to the cJun coated FlashPlates along with ^33P-ATP (0.32 µCi per reaction) and test compounds. The plates were incubated for 30 minutes at 37 °C, then washed with PBS, 0.01% Tween 20, and counted in the Topcount scintillation counter (Packard Instrument Co., Downers Grove, IL). Dilutions of compounds were tested in duplicate in each assay. The percent inhibition of cJun phosphorylation (a measure of inhibition of SAPK activity) was determined by the following formula: [formula] where "test compound" refers to the average counts per minute of the test duplicates, "nonspecific" refers to the average counts per minute when no SAPK was added, and "total" refers to the average counts per minute when no compound was added.

The test system of test [2] is IL-6. Nature of the test: U937 Cell-Based Assay, IL-6 release after LPS stimulation (ELISA). The settings on record: Homo sapiens, U-937; U937 cells, PMA then LPS stimulated, 24 hours; read-out: IC50 (µM) in U937 Cells IL6. As for the experimental part:
as §4, §5

For `COc1cc[nH]c1/C=C1\C(=O)Nc2cccc(C#CC(O)c3ccsc3)c21` (racemic) [BB, rac-(Z)-1,3-Dihydro-4-[3-hydroxy-3-(thiophen-3-yl)-1-propynyl]-3-[(3-methoxy-1H-pyrrol-2-yl)methylene]-2H-indol-2-one], the half-maximal inhibitory concentration (IC50) is under 20 µM in the test with IL-6 [1]; under 8 µM with TNF; under 12.5 µM in the test on MMP-3; under 1 µM against rat SAPK (isoform β); under 20 µM with IL-6 [2].

As for `COc1cc[nH]c1/C=C1\C(=O)Nc2cccc(C#CC(O)c3cccc(OC)c3OC)c21` (racemic) [EE, rac-(Z)-1,3-Dihydro-4-[3-(2,3-dimethoxyphenyl)-3-hydroxy-1-propynyl]-3-[(3-methoxy-1H-pyrrol-2-yl)methylene]-2H-indol-2-one], the IC50 with IL-6 [1] is under 20 µM; with MMP-3, under 12.5 µM; at rat SAPK (isoform β), under 1 µM.

For `COc1cc[nH]c1/C=C1\C(=O)Nc2cccc(C#CC(O)c3ccccc3)c21` (racemic) [FFF, rac-(Z)-1,3-Dihydro-4-(3-hydroxy-3-phenyl-1-propynyl)-3-[(3-methoxy-1H-pyrrol-2-yl)methylene]-2H-indol-2-one], the IC50 is under 20 µM in the test on IL-6 [1], under 12.5 µM in the test on MMP-3 and under 1 µM against rat SAPK (isoform β).

In the case of `COc1ccc(C(O)C#Cc2cccc3c2/C(=C/c2[nH]ccc2OC)C(=O)N3)cc1` (racemic) [H, rac-(Z)-1,3-Dihydro-4-[3-hydroxy-3-(4-methoxyphenyl)-1-propynyl]-3-[(3-methoxy-1H-pyrrol-2-yl)methylene]-2H-indol-2-one], the IC50 in the test on IL-6 [1] is under 20 µM; in the test on MMP-3 it was under 12.5 µM; at rat SAPK (isoform β), under 1 µM.

As for `COc1cc[nH]c1/C=C1\C(=O)Nc2cccc(C#CC(O)c3ccc4c(c3)OCO4)c21` (racemic) [N, rac-(Z)-4-[3-(1,3-benzodioxol-5-yl)-3-hydroxy-1-propynyl]-1,3-dihydro-3-[(3-methoxy-1H-pyrrol-2-yl)methylene]-2H-indol-2-one], the half-maximal inhibitory concentration (IC50) was under 20 µM in the test with IL-6 [1]; under 8 µM in the test on TNF; under 12.5 µM in the test with MMP-3; under 1 µM against rat SAPK (isoform β); under 20 µM in the test with IL-6 [2].

`COc1cc(C(O)C#Cc2cccc3c2/C(=C/c2[nH]ccc2OC)C(=O)N3)ccc1O` (racemic) [O, rac-(Z)-1,3-Dihydro-4-[3-hydroxy-3-(4-hydroxy-3-methoxyphenyl)-1-propynyl]-3-[(3-methoxy-1H-pyrrol-2-yl)methylene]-2H-indol-2-one]: the IC50 was under 20 µM in the test on IL-6 [1], under 8 µM in the test on TNF, under 12.5 µM in the test with MMP-3 and under 20 µM with IL-6 [2].

On to `COc1cc[nH]c1/C=C1\C(=O)Nc2cccc(C#CC(O)c3ccc(N(C)C)cc3)c21` (racemic) [R, rac-(Z)-1,3-Dihydro-4-[3-(4-dimethylaminophenyl)-3-hydroxy-1-propynyl]-3-[(3-methoxy-1H-pyrrol-2-yl)methylene]-2H-indol-2-one], for which the IC50 with IL-6 [1] is under 20 µM; in the test with TNF it was under 8 µM; with MMP-3, under 12.5 µM; on rat SAPK (isoform β), under 1 µM; in the test with IL-6 [2] it was 20 µM.

As to `C#CC(O)c1ccc[nH]1` (centres unmarked) [CC, 3-Hydroxy-3-(1H-pyrrol-2-yl)-1-propyne], the IC50 in the test with IL-6 [1] was under 20 µM; with MMP-3, under 12.5 µM.

For the compound `COc1cc[nH]c1/C=C1\C(=O)Nc2cccc(C#Cc3cccnc3)c21` [CCC, (Z)-1,3-Dihydro-3-[(3-methoxy-1H-pyrrol-2-yl)methylene]-4-[(3-pyridinyl)ethynyl]-2H-indol-2-one], the IC50 in the test with IL-6 [1] is over 20 µM; in the test on MMP-3, under 12.5 µM; against rat SAPK (isoform β), under 1 µM.

In the case of `COc1cc[nH]c1/C=C1\C(=O)Nc2cccc(C#Cc3ccccc3)c21` [D, (Z)-1,3-Dihydro-4-(phenylethynyl)-3-[(3-methoxy-1H-pyrrol-2-yl)methylene]-2H-indol-2-one], the figures for the half-maximal inhibitory concentration (IC50) in the test on IL-6 [1], in the test on MMP-3 and against rat SAPK (isoform β) were 20 µM, under 12.5 µM and under 1 µM, respectively.

For `COc1ccc(C#Cc2cccc3c2/C(=C/c2[nH]ccc2OC)C(=O)N3)cc1` [G, (Z)-1,3-Dihydro-4-[(4-methoxyphenyl)ethynyl]-3-[(3-methoxy-1H-pyrrol-2-yl)methylene]-2H-indol-2-one], the IC50 is under 20 µM with IL-6 [1], under 12.5 µM with MMP-3 and under 1 µM against rat SAPK (isoform β).

As for `C#CC(O)c1ccc(OC)c(O)c1` (centres unmarked) [GG, 3-Hydroxy-3-(3-hydroxy-4-methoxyphenyl)-1-propyne], the IC50 with IL-6 [1] was under 20 µM; with MMP-3, under 12.5 µM.

On to `COc1cc[nH]c1/C=C1\C(=O)Nc2ccc(NC(=O)Cc3cccs3)c(C#Cc3cccnc3)c21` [III, (Z)-N-[2,3-Dihydro-3-[(3-methoxy-1H-pyrrol-2-yl)methylene]-2-oxo-4-[(3-pyridinyl)ethynyl]-1H-indol-5-yl]-2-thiopheneacetamide], for which the 50% inhibitory concentration (IC50) with IL-6 [1] is 20 µM; in the test on MMP-3 it was under 12.5 µM.

As to `C#CC(O)c1ccc(O)cc1` (centres unmarked) [P, 3-Hydroxy-3-(4-hydroxyphenyl)-1-propyne], the half-maximal inhibitory concentration (IC50) was under 20 µM in the test with IL-6 [1] and under 12.5 µM in the test with MMP-3.

For the compound `COc1ccc(/C=C/c2cccc3c2/C(=C/c2[nH]ccc2OC)C(=O)N3)cc1OC` [QQQ, 1,3-Dihydro-4-[(E)-2-(3,4-dimethoxyphenyl)-ethenyl]-(Z)-3-[(3-methoxy-1H-pyrrol-2-yl)methylene]-2H-indol-2-one], the results for the concentration for half-maximal inhibition (IC50) with IL-6 [1], in the test on MMP-3 and on rat SAPK (isoform β) were 20 µM, under 12.5 µM and under 1 µM, respectively.

As for `COc1cc[nH]c1/C=C1\C(=O)Nc2cccc(C#CCOc3ccccc3)c21` [Y, (Z)-1,3-Dihydro-3-[(3-methoxy-1H-pyrrol-2-yl)methylene]-4-(3-phenoxy-1-propynyl)-2H-indol-2-one], the half-maximal inhibitory concentration (IC50) in the test on IL-6 [1] was under 20 µM; in the test on MMP-3 it was under 12.5 µM; against rat SAPK (isoform β), under 1 µM.

`C#CC(O)c1cccn1C` (centres unmarked) [Z, 3-Hydroxy-3-(1-methyl-pyrrol-2-yl)-1-propyne]: the IC50 with IL-6 [1] was under 20 µM; in the test with MMP-3, under 12.5 µM.

By IC50 is commonly meant the midpoint of a concentration-inhibition curve.
